Results on 20 compounds are retold here after patent US20220177471A1, “N-1 BRANCHED ALKYL SUBSTITUTED IMIDAZO[4,5-C]QUINOLINE COMPOUNDS, COMPOSITIONS, AND METHODS” (3M INNOVATIVE PROPERTIES COMPANY, priority 2019, published 2022).

This assay concerns Human peripheral blood mononuclear cells (PBMC). Nature of the assay: Cytokine induction in human cells (PBMC), cytokines by ELISA / multiplex bead assay. To be noted: for minimal effective concentration: human PBMC, 21-24 hours, lowest concentration giving cytokine level at least 2x negative control; for cytokine production (statement in words): IFN-alpha, IFN-gamma, TNF-alpha. The assay is classed as cell-based. The protocol: Whole blood was obtained from healthy human donors and collected by venipuncture into vacutainer tubes or syringes containing EDTA. Human peripheral blood mononuclear cells (PBMC) were purified from the whole blood by density gradient centrifugation. Histopaque 1077 (15 mL, Sigma, St. Louis, Mo.) was transferred to 6×50 mL sterile polypropylene conical tubes. The Histopaque was overlayed with 15-25 mL of blood diluted 1:2 in Hank's Balanced Salts Solution (HBSS) (Gibco, Life Technologies, Grand Island, N.Y.). The tubes were then centrifuged at 1370 revolutions per minute (rpm) for 30 minutes at 20° C., with no brake (400×g, GH 3.8 A Rotor).
The interface (buffy coat) containing the PBMC was collected and placed in a new sterile 50 mL conical polypropylene centrifuge tube. The PBMC were mixed with an equal volume of HBSS (about 20 mL from the interface and about 20 mL of HBSS), and then centrifuged at 1090 rpm, 10 minutes, 20° C., with brake (270×g, GH 3.8 A Rotor). After completing centrifugation, the cells were resuspended in 2-3 mL ACK Red blood cell lysis buffer (ammonium chloride potassium solution, Gibco, Life Technologies) and incubated for 2-5 minutes at 20° C. Next, HBSS (40 mL) was added to the cells, and the sample was centrifuged at 270×g for 10 minutes at 20° C. The supernatant was decanted, and the cell pellet was resuspended in 5 mL AIM V Medium (Gibco, Life Technologies). Cell aggregates and debris were removed by filtering the cell solution through a BD Falcon 70 micron nylon cell strainer (BD Biosciences, San Jose, Calif.).
The number of viable cells was determined by counting with a Miltenyi FACS instrument (Miltenyi Biotec Inc., San Diego, Calif.) or by using a hemacytometer. For determining cell viability with a hemacytometer, the cells were diluted 1/10 in 0.4% trypan blue and HBSS (specifically, 50 microliter of trypan blue+40 microliter of HBSS+10 microliter of cell solution were added to a microfuge tube and mixed). Ten microliters of the diluted cells were then applied to the hemacytometer, and the number of viable PBMC were determined by microscopy.
The PBMC sample was then resuspended in 96-well plates at a concentration of 8×10^5 cells/well in 0.1 mL of AIM-V medium. Each compound was solubilized in dimethyl sulfoxide (DMSO) to create a 3 mM stock solution. The stock solution was then further diluted with AIM-V medium to prepare the serial dilutions. The diluted compound (100 microliters) was then transferred to the PBMCs to produce testing sets with final compound concentrations of either 30, 10, 3.3, 1.1, 0.37, 0.12, 0.04, 0.01 micromolar (testing set A); 100, 30, 10, 3.3, 1.1, 0.37, 0.12, 0.04, 0.01, 0.005 micromolar (testing set B); 100, 33.3, 11.1, 3.7, 1.2, 0.41 micromolar (testing set C); or 100, 50, 30, 10, 3.3, 1.1, 0.37, 0.12, 0.04 micromolar (testing set D). The plates also had both positive and negative controls. The negative control wells contained only AIM-V medium with no example compound. The positive control wells contained a control set of imiquimod serially diluted to concentrations of either 30, 10, 3.3, 1.1, 0.37, 0.12, 0.04, 0.01 micromolar (control set A); 100, 30, 10, 3.3, 1.1, 0.37, 0.12, 0.04, 0.01, 0.005 micromolar (control set B); 100, 33.3, 11.1, 3.7, 1.2, 0.41 micromolar (control set C); or 100, 50, 30, 10, 3.3, 1.1, 0.37, 0.12, 0.04 micromolar (control set D). The concentrations used in the control set were selected to match the concentrations used in the testing set. The plates were then cultured at 37° C./5% CO2 for 21-24 hours. Cell-free supernatants were harvested by centrifuging the 96-well plates at 2100 rpm, 23° C. for 10 minutes. Approximately 160 microliters of the supernatant was then stored in a NUNC 96-well plate, covered with the compression cap and stored at −80° C. until the cytokine analysis was done.
IFN-alpha cytokine levels (picograms/mL) were measured by ELISA (human IFN-alpha, pan specific, Mabtech, Cincinnati, Ohio). […]

Where [1] appears, read: ELISA, read-out: MEC to Induce Cytokine: IFN-alpha.
Where [2] appears, read: multiplex bead assay, read-out: MEC to Induce Cytokine: IFN-gamma.
Where [3] appears, read: multiplex bead assay, read-out: MEC to Induce Cytokine: TNF-alpha.

Each structure is given as a SMILES string. Where two headings read alike, the source gives them in different places. Bounds are passed on as bounds.

As for `CCCC[C@@H](n1cnc2c(N)nc3ccccc3c21)C(C)(C)C` [Example 8, 1-[(1R)-1-tert-butylpentyl]imidazo[4,5-c]quinolin-4-amine], the minimal effective concentration by setting is: under setting [1], 0.04 µM; under setting [2], greater than 30 µM; under setting [3], 0.04 µM.

For `CCC[C@@H](n1cnc2c(N)nc3ccccc3c21)C(C)(C)O` [Example 13, (3R)-3-(4-aminoimidazo[4,5-c]quinolin-1-yl)-2-methyl-hexan-2-ol], the minimal effective concentration by setting is: under setting [1], no more than 0.41 µM; under setting [2], no more than 0.41 µM; under setting [3], no more than 0.41 µM.

As to `C[C@@H](C1CCCCC1)n1cnc2c(N)nc3ccccc3c21` [Example 6, 1-[(1S)-1-cyclohexylethyl]imidazo[4,5-c]quinolin-4-amine], the “cytokine production (statement in words)” value is “inactive toward cytokine production”. The minimal effective concentration under setting [1] is greater than 100 µM. Under setting [2], the minimal effective concentration is greater than 100 µM. Moreover, the minimal effective concentration under setting [3] was greater than 100 µM.

Turning to `CCCC[C@H](C(C)C)n1cnc2c(N)nc3ccccc3c21` [Example 7, 1-[(1R)-1-isopropylpentyl]imidazo[4,5-c]quinolin-4-amine], the minimal effective concentration reads like this: under setting [1], 0.12 µM; under setting [2], greater than 30 µM; under setting [3], 0.12 µM.

For `C[C@H](n1cnc2c(N)nc3ccccc3c21)C(C)(C)O` [Example 10, (3S)-3-(4-aminoimidazo[4,5-c]quinolin-1-yl)-2-methyl-butan-2-ol], the “cytokine production (statement in words)” value was “inactive toward cytokine production”. Besides, the minimal effective concentration under setting [1] was greater than 30 µM. The minimal effective concentration under setting [2] was greater than 30 µM. Moreover, the minimal effective concentration under setting [3] was greater than 30 µM.

`CC[C@H](n1cnc2c(N)nc3ccccc3c21)C(C)(C)O` [Example 12, (3S)-3-(4-aminoimidazo[4,5-c]quinolin-1-yl)-2-methyl-pentan-2-ol]: the “cytokine production (statement in words)” value was “inactive toward cytokine production”. In addition, under setting [1], the minimal effective concentration was greater than 100 µM. Further, the minimal effective concentration under setting [2] is greater than 100 µM. Also, the minimal effective concentration under setting [3] was greater than 100 µM.

Turning to `CC(C)C[C@H](n1cnc2c(N)nc3ccccc3c21)C(C)(C)O` [Example 18, (3S)-3-(4-aminoimidazo[4,5-c]quinolin-1-yl)-2,5-dimethyl-hexan-2-ol], the “cytokine production (statement in words)” value was “inactive toward cytokine production”. Also, the minimal effective concentration under setting [1] was greater than 100 µM. Under setting [2], the minimal effective concentration was greater than 100 µM. For the same compound, under setting [3], the minimal effective concentration was greater than 100 µM.

As to `C[C@H](n1cnc2c(N)nc3ccccc3c21)C(C)(C)C` [Example 4, 1-[(1S)-1,2,2-trimethylpropyl]imidazo[4,5-c]quinolin-4-amine], the “cytokine production (statement in words)” value is “inactive toward cytokine production”. Besides, the minimal effective concentration under setting [1] is greater than 100 µM. In addition, under setting [2], the minimal effective concentration was greater than 100 µM. Further, the minimal effective concentration under setting [3] was greater than 100 µM.

For `CC(C)[C@H](C)n1cnc2c(N)nc3ccccc3c21` [Example 2, 1-[(1S)-1,2-dimethylpropyl]imidazo[4,5-c]quinolin-4-amine], the “cytokine production (statement in words)” value was “inactive toward cytokine production”. For the same compound, the minimal effective concentration under setting [1] is greater than 100 µM. Also, under setting [2], the minimal effective concentration was greater than 100 µM. Also, under setting [3], the minimal effective concentration is greater than 100 µM.

In the case of `C[C@@H](n1cnc2c(N)nc3ccccc3c21)C(C)(C)C` [Example 3, 1-[(1R)-1,2,2-trimethylpropyl]imidazo[4,5-c]quinolin-4-amine], the minimal effective concentration by setting is: under setting [1], 1.2 µM; under setting [2], 1.2 µM; under setting [3], 1.2 µM.

Take `CC(C)C[C@@H](n1cnc2c(N)nc3ccccc3c21)C(C)(C)O` [Example 17, (3R)-3-(4-aminoimidazo[4,5-c]quinolin-1-yl)-2,5-dimethyl-hexan-2-ol]: the minimal effective concentration by setting is: under setting [1], 10 µM; under setting [2], 10 µM; under setting [3], 10 µM.

For `CCCC[C@H](n1cnc2c(N)nc3ccccc3c21)C(C)(C)O` [Example 16, (3S)-3-(4-aminoimidazo[4,5-c]quinolin-1-yl)-2-methyl-heptan-2-ol], the “cytokine production (statement in words)” value was “inactive toward cytokine production”. Besides, the minimal effective concentration under setting [1] is greater than 100 µM. Also, the minimal effective concentration under setting [2] is greater than 100 µM. Moreover, the minimal effective concentration under setting [3] is greater than 100 µM.

`C[C@H](C1CCCCC1)n1cnc2c(N)nc3ccccc3c21` [Example 5, 1-[(1R)-1-cyclohexylethyl]imidazo[4,5-c]quinolin-4-amine]: the minimal effective concentration under setting [1] was 0.41 µM, the minimal effective concentration under setting [2] came out at 1.2 µM and the minimal effective concentration under setting [3] was determined as 0.41 µM.

`C[C@H](n1cnc2c(N)nc3ccccc3c21)C(C)(C)F` [Example 21, 1-[(1S)-2-fluoro-1,2-dimethyl-propyl]imidazo[4,5-c]quinolin-4-amine]: the “cytokine production (statement in words)” value is “inactive toward cytokine production”. For the same compound, under setting [1], the minimal effective concentration is greater than 100 µM. Under setting [2], the minimal effective concentration was greater than 100 µM. Besides, the minimal effective concentration under setting [3] is greater than 100 µM.

Regarding `CCC(O)(CC)[C@@H](C)n1cnc2c(N)nc3ccccc3c21` [Example 19, (2R)-2-(4-aminoimidazo[4,5-c]quinolin-1-yl)-3-ethyl-pentan-3-ol], the minimal effective concentration is, setting by setting: under setting [1], 1.1 µM; under setting [2], 3.3 µM; under setting [3], 1.1 µM.

With `CC(C)[C@@H](C)n1cnc2c(N)nc3ccccc3c21` [Example 1, 1-[(1R)-1,2-dimethylpropyl]imidazo[4,5-c]quinolin-4-amine], the minimal effective concentration by setting is: under setting [1], 3.7 µM; under setting [2], 3.7 µM; under setting [3], 1.2 µM.

`C[C@@H](n1cnc2c(N)nc3ccccc3c21)C(C)(C)O` [Example 9, (3R)-3-(4-aminoimidazo[4,5-c]quinolin-1-yl)-2-methyl-butan-2-ol]: the minimal effective concentration by setting is: under setting [1], 3.3 µM; under setting [2], 3.3 µM; under setting [3], 10 µM.

As for `CC(C)(O)Cn1cnc2c(N)nc3ccccc3c21` [Comparative Example 2, 1-(4-aminoimidazo[4,5-c]quinolin-1-yl)-2-methyl-propan-2-ol, reference compound], the minimal effective concentration reads like this: under setting [1], 10 µM; under setting [2], 10 µM; under setting [3], 10 µM.

For `CCCC[C@@H](n1cnc2c(N)nc3ccccc3c21)C(C)(C)O` [Example 15, (3R)-3-(4-aminoimidazo[4,5-c]quinolin-1-yl)-2-methyl-heptan-2-ol], the minimal effective concentration is, setting by setting: under setting [1], no more than 0.04 µM; under setting [2], 0.12 µM; under setting [3], 0.12 µM.

Turning to `C[C@@H](n1cnc2c(N)nc3ccccc3c21)C(C)(C)F` [Example 20, 1-[(1R)-2-fluoro-1,2-dimethyl-propyl]imidazo[4,5-c]quinolin-4-amine], the minimal effective concentration is, setting by setting: under setting [1], 10 µM; under setting [2], 30 µM; under setting [3], 10 µM.
